{"source": "patent US20140163456A1", "about": "“METHOD OF PRODUCING SUBSTANCES WITH SUPERSATURATED GAS, TRANSDERMAL DELIVERY DEVICE THEREOF, AND USES THEREOF” (INVISIDERM, LLC, priority 2011, published 2014)", "key": {"individuals [1]": {"tested_on": "individuals", "test": "Measurement of brachial diastolic and systolic blood pressure on right upper arm", "format": "in vivo, human", "description": "(§1) The treatment was administered by having an individual insert the left thumb into the open-ended delivery outlet of a device disclosed herein creating a seal. The digit will be “bathed” for five minutes with a vapor including supersaturated dissolved molecular carbon dioxide from a canister providing pure, medical-grade carbon dioxide. Nine individuals were examined.\nTo conduct this study, individuals from the study described in Example 1 had there blood pressure taken. A measurement of both brachial diastolic blood pressure and systolic blood pressure was performed on the individual's right upper arm at six time points 1) 5 minutes before treatment (pre-treatment); 2) 5 minutes post-treatment; 3) 30 minutes post-treatment; 4) 60 minutes post-treatment; 5) 120 minutes post-treatment; and 6) 240 minutes post-treatment."}, "individuals [2]": {"tested_on": "individuals", "test": "Measurement of blood flow: Skin Perfusion Pressure (SensiLase System) on right toe, capillary blood flow change", "format": "in vivo, human", "description": "as §1\nTissue perfusion in distal arteries was accessed using a SensiLase System (a FDA-cleared device) and measuring Skin Perfusion Pressure (SPP) and Pulse Volume Recording (PVR). SPP is a pressure measurement in mmHg that assess local blood perfusion in capillaries using a laser Doppler to measure reactive hyperemia, which reflects microcirculation for distal arterial blood flow. PVR is a measurement of plethysmography to assess changes in arterial blood volume. A change in capillary blood flow (CBF) is calculated by determining the change in SPP values over time. For this study, the CBF values of all post-treatment measurements were calculated by dividing the post-treatment SPP value by the pre-treatment SPP value. A measurement of SPP was performed on the individual's right toe at six time points 1) 5 minutes before treatment (pre-treatment); 2) 5 minutes post-treatment; 3) 30 minutes post-treatment; 4) 60 minutes post-treatment; 5) 120 minutes post-treatment; and 6) 240 minutes post-treatment."}, "[3]": {"details": "nine individuals, 5 to 240 min post-treatment"}, "[4]": {"details": "over the course of the entire 240 minute study"}}}
{"smiles": "O=C=O", "note": "[molecular carbon dioxide, carbon dioxide]", "values": [{"measurement": "blood pressure", "setting": "individuals [1]; [3]", "result": "decreased blood pressure in all individuals examined at some point during the time period measured"}, {"measurement": "diastolic and systolic blood pressure", "setting": "individuals [1]; [4]", "result": "Seven of the nine individuals studied showed decreased diastolic and systolic blood pressure"}, {"measurement": "blood flow", "setting": "individuals [2]; [3]", "result": "increases blood flow in all individuals examined at some point during the time period measured"}, {"measurement": "sustained increases in capillary blood flow", "setting": "individuals [2]; [4]", "result": "six of the nine patients showed sustained increases in capillary blood flow"}]}
